Assay results from patent US9000153B2, “Imidazo[4,5-c]quinolines as DNA-PK inhibitors” (Merck Patent GmbH, priority 2010, dated 2015).

These compounds were tested against DNA-PK (Homo sapiens (Human), UniProt P78527) (assay: DNA-PK/biochemical assay (FlashPlate kinase assay)). Details: 5 μM ATP, 90 min, room temperature.
Description: The kinase assay was carried out in streptavidin-coated […] microtitre FlashPlates®. To this end, 1.5 μg of the DNA-PK/protein complex and 100 ng of biotinylated substrate, such as, for example, PESQEAFADLWKK biotin-NH2 (“biotin-DNA-PK peptide”), in a total volume of 36.5 μl (34.25 mM HEPES/KOH, 7.85 mM Tris-HCl, 68.5 mM KCl, 5 μM ATP, 6.85 mM MgCl2, 0.5 mM EDTA, 0.14 mM EGTA, 0.69 mM DTT, pH 7.4), were incubated at room temperature for 90 min with 500 ng of DNA from calf thymus, 0.1 μCi of 33P-ATP and 1.8% of DMSO per well with or without the test compound. The reaction was stopped using 50 μl/well of 200 mM EDTA. After incubation for a further 30 min at room temperature, the liquid was removed. Each well was washed three times with 100 μl of 0.9% sodium chloride solution. A non-specific reaction (blank value) was determined using 10 μM of a proprietary kinase inhibitor. The radioactivity measurement was carried out by means of a TopCount. IC50 values were calculated in RS1 (Kashishian et al. (2003) Molecular Cancer Therapeutics 1257).

SMILES	IC50
COc1cc2ncc3[nH]c(=O)n(-c4ccc(C#N)cc4)c3c2cc1OC [Compound 1, 4-(7,8-Dimethoxy-2-oxo-2,3-dihydroimidazo[4,5-c]quinolin-1-yl)benzonitrile]	< 100 nM
COc1cc2ncc3c(c2cc1OC)n(-c1ccc(C#N)cc1)c(=O)n3C [Compound 2, 4-(7,8-Dimethoxy-3-methyl-2-oxo-2,3-dihydroimidazo-[4,5-c]quinolin-1-yl)-benzonitrile]	< 100 nM
COc1cc2ncc3c(c2cc1O)n(-c1ccc(C#N)cc1)c(=O)n3C [Compound 3, 4-(8-Hydroxy-7-methoxy-3-methyl-2-oxo-2,3-dihydro-imidazo[4,5-c]quinolin-1-yl)-benzonitrile]	< 100 nM
COc1cc2ncc3c(c2cc1O)n(-c1ccc(C#N)cc1F)c(=O)n3C [Compound 4, 3-Fluoro-4-(8-hydroxy-7-methoxy-3-methyl-2-oxo-2,3-dihydroimidazo[4,5-c]quinolin-1-yl)benzonitrile]	< 100 nM
COc1cc2ncc3c(c2cc1O)n(-c1c(F)cc(C#N)cc1F)c(=O)n3C [Compound 5, 3,5-Difluoro-4-(8-hydroxy-7-methoxy-3-methyl-2-oxo-2,3-dihydroimidazo[4,5-c]quinolin-1-yl)benzonitrile]	< 100 nM
COc1cc2ncc3[nH]c(=O)n(-c4ccc(C#N)cc4)c3c2cc1OCc1ccccc1 [Compound 6, 4-(8-Benzyloxy-7-methoxy-2-oxo-2,3-dihydroimidazo-[4,5-c]quinolin-1-yl)-benzonitrile]	< 100 nM
COc1cc2ncc3c(c2cc1OCc1ccccc1)n(-c1ccc(C#N)cc1)c(=O)n3C [Compound 7, 4-(8-Benzyloxy-7-methoxy-3-methyl-2-oxo-2,3-dihydro-imidazo[4,5-c]quinolin-1-yl)-benzonitrile]	< 100 nM
COc1cc2ncc3[nH]c(=O)n(-c4ccc(C#N)cc4F)c3c2cc1OCc1ccccc1 [Compound 8, 4-(8-Benzyloxy-7-methoxy-2-oxo-2,3-dihydroimidazo-[4,5-c]quinolin-1-yl)-3-fluorobenzonitrile]	< 100 nM
COc1cc2ncc3c(c2cc1OCc1ccccc1)n(-c1ccc(C#N)cc1F)c(=O)n3C [Compound 9, 4-(8-Benzyloxy-7-methoxy-3-methyl-2-oxo-2,3-dihydro-imidazo[4,5-c]quinolin-1-yl)-3-fluorobenzonitrile]	< 100 nM
COc1cc2ncc3[nH]c(=O)n(-c4c(F)cc(C#N)cc4F)c3c2cc1OCc1ccccc1 [Compound 10, 4-(8-Benzyloxy-7-methoxy-2-oxo-2,3-dihydroimidazo-[4,5-c]quinolin-1-yl)-3,5-difluorobenzonitrile]	< 100 nM
COc1cc2ncc3c(c2cc1OCc1ccccc1)n(-c1c(F)cc(C#N)cc1F)c(=O)n3C [Compound 11, 4-(8-Benzyloxy-7-methoxy-3-methyl-2-oxo-2,3-dihydro-imidazo[4,5-c]quinolin-1-yl)-3,5-difluorobenzonitrile]	< 100 nM
COC(=O)n1c(=O)n(-c2ccc(C#N)cc2F)c2c3cc(OCc4ccccc4)c(OC)cc3ncc21 [Compound 12, Methyl 8-benzyloxy-1-(4-cyano-2-fluorophenyl)-7-methoxy-2-oxo-1,2-dihydroimidazo[4,5-c]-quinoline-3-carboxylate]	< 100 nM
COc1cc2ncc3c(c2cc1OCc1ccsc1)n(-c1ccc(C#N)cc1F)c(=O)n3C [Compound 13, 3-Fluoro-4-(7-methoxy-3-methyl-2-oxo-8-(thiophen-3-ylmethoxy)-2,3-dihydroimidazo[4,5-c]-quinolin-1-yl)benzonitrile]	< 100 nM
COc1cc2ncc3c(c2cc1OCc1cccs1)n(-c1ccc(C#N)cc1F)c(=O)n3C [Compound 14, 3-Fluoro-4-(7-methoxy-3-methyl-2-oxo-8-(thiophen-2-ylmethoxy)-2,3-dihydroimidazo[4,5-c]-quinolin-1-yl)benzonitrile]	< 100 nM
COc1cc2ncc3c(c2cc1OC(C(N)=O)c1ccc(F)cc1)n(-c1ccc(C#N)cc1F)c(=O)n3C (stereo not drawn) [Compound 15, 2-[1-(4-Cyano-2-fluorophenyl)-7-methoxy-3-methyl-2-oxo-2,3-dihydro-1H-imidazo[4,5-c]-quinolin-8-yloxy]-2-(4-fluoro-phenyl)acetamide]	< 100 nM
COCCNC(=O)C(Oc1cc2c(cc1OC)ncc1c2n(-c2ccc(C#N)cc2F)c(=O)n1C)c1ccc(F)cc1 (stereo not drawn) [Compound 16, 2-[1-(4-Cyano-2-fluorophenyl)-7-methoxy-3-methyl-2-oxo-2,3-dihydro-1H-imidazo[4,5-c]-quinolin-8-yloxy]-2-(4-fluoro-phenyl)-N-(2-methoxyethyl)-acetamide]	100 to 500 nM
COc1cc2ncc3c(c2cc1OCc1ccc(F)cc1)n(-c1ccc(C#N)cc1F)c(=O)n3C [Compound 17, 3-Fluoro-4-[8-(4-fluoro-benzyloxy)-7-methoxy-3-methyl-2-oxo-2,3-dihydro-imidazo[4,5-c]quinolin-1-yl]-benzonitrile]	< 100 nM
COc1cc2ncc3c(c2cc1OC(C(N)=O)c1ccccc1)n(-c1ccc(C#N)cc1F)c(=O)n3C (stereo not drawn) [Compound 18, 2-[1-(4-Cyano-2-fluorophenyl)-7-methoxy-3-methyl-2-oxo-2,3-dihydro-1H-imidazo[4,5-c]-quinolin-8-yloxy]-2-phenyl-acetamide]	< 100 nM
COc1cc2ncc3c(c2cc1OCc1sccc1S(=O)(=O)N1CCOCC1)n(-c1ccc(C#N)cc1F)c(=O)n3C [Compound 19, 3-Fluoro-4-{7-methoxy-3-methyl-8-[3-(morpholine-4-sulfonyl)-thiophen-2-ylmethoxy]-2-oxo-2,3-dihydro-1H-imidazo[4,5-c]-quinolin-1-yl}benzonitrile]	100 to 500 nM
COc1cc2ncc3c(c2cc1OCc1ccncc1)n(-c1ccc(C#N)cc1F)c(=O)n3C [Compound 20, 3-Fluoro-4-[7-methoxy-3-methyl-2-oxo-8-(pyridin-4-ylmethoxy)-2,3-dihydroimidazo[4,5-c]-quinolin-1-yl]benzonitrile]	< 100 nM
COc1cc2ncc3c(c2cc1OCc1ccccc1Br)n(-c1ccc(C#N)cc1F)c(=O)n3C [Compound 21, 4-[8-(2-Bromobenzyloxy)-7-methoxy-3-methyl-2-oxo-2,3-dihydroimidazo[4,5-c]quinolin-1-yl]-3-fluorobenzonitrile]	< 100 nM
COc1cc2ncc3c(c2cc1OCc1ccc(F)cc1Br)n(-c1ccc(C#N)cc1F)c(=O)n3C [Compound 22, 4-[8-(2-Bromo-4-fluorobenzyloxy)-7-methoxy-3-methyl-2-oxo-2,3-clihydro-imidazo[4,5-c]quinolin-1-yl]-3-fluorobenzonitrile]	< 100 nM
COc1cc2ncc3c(c2cc1OCc1ccc(F)cc1Cl)n(-c1ccc(C#N)cc1F)c(=O)n3C [Compound 23, 4-[8-(2-Chloro-4-fluorobenzyloxy)-7-methoxy-3-methyl-2-oxo-2,3-dihydro-imidazo[4,5-c]quinolin-1-yl]-3-fluorobenzonitrile]	< 100 nM
COc1cc2ncc3c(c2cc1OCc1ccc(F)c(Cl)c1)n(-c1ccc(C#N)cc1F)c(=O)n3C [Compound 24, 4-[8-(3-Chloro-4-fluorobenzyloxy)-7-methoxy-3-methyl-2-oxo-2,3-dihydro-imidazo[4,5-c]quinolin-1-yl]-3-fluorobenzonitrile]	< 100 nM
